Assay results published in patent US9708305B2, “Substituted 1,2,3,4-tetrahydroisoquinoline derivatives for the treatment of hormone-dependent diseases” (UNIVERSITÉ LAVAL, priority 2013, dated 2017).
Several values for one entry are separate records, joined by “and”; a condition that tells them apart may be missing. Equal entries are not always repeated.

What was measured:
T-47D cells = experiment: T-47D cell proliferation (estrogenicity / cytotoxicity), MTS; format: cell-based; conditions: Homo sapiens, T47D, control cells set to 100%, mean±SD
Experimental: The library of phenolic compounds described above was tested on estrogen-sensitive breast cancer T-47D cells.
In Table 1, cell proliferation of control cells is set to 100%. Results are expressed as mean±SD of one experiment in triplicate.
CellTitter 96® Aqueous One Solution Cell Proliferation Assay was used as an indirect colorimetric measurement of cell proliferation according to the manufacturer's instructions. Briefly, after the treatments, 20 μL of MTS solution was added to each well (100 μL) of the plates and incubated at 37° C. for 2 h (Saos-2) or 4 h (T-47D). The absorbance at 490 nm was then measured with a Thermo max microplate reader (Molecular Devices, Sunnyvale, Calif.). The control (culture media+DMSO) is set to 100% of cell proliferation.
The cells were plated in 96-well plates at a density of 3 000 cells/well and allowed to attach for 48 h. After this pre-incubation, the inhibitors and the reference compounds diluted in fresh culture media were added to the wells and replaced every 2 days for 7 days of treatment.

STS = molecular target: T1, STS (Homo sapiens, UniProt P08842); experiment: STS inhibition of libraries 1-EO to 4-EO, homogenate of STS transfected HEK-293 cells; format: biochemical; conditions: mean ± SEM, triplicate
T1 construct: expressed in transfected cells; host or cells: HEK-293 cells stably transfected with STS (G418 selection), obtained from Dr. Van Luu-The; used as freeze-thaw homogenate
T1 sequence (P08842 22-583): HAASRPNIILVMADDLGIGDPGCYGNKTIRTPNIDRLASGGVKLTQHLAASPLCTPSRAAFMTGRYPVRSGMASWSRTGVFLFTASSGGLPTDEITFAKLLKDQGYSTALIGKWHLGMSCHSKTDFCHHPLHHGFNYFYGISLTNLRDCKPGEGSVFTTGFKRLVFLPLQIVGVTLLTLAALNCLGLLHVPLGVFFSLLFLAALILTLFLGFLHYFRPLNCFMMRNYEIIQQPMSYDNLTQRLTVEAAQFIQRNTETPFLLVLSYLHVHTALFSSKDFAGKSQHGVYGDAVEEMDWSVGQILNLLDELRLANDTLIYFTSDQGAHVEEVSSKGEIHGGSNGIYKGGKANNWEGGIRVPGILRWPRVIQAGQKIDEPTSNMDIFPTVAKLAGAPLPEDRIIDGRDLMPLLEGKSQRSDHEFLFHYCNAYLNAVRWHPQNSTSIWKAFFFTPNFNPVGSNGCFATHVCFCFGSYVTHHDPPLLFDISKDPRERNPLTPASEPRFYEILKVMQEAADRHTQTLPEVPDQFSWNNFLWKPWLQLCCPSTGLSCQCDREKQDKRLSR
Experimental: The enzymatic assay was performed using homogenate of STS transfected HEK-293 cells as the source of enzyme activity. The transformation of [^3H]-E1S into [^3H]-E1 was measured using scintillation counting of labeled E1S and E1 in the aqueous and organic phases, respectively. Newly synthesized sulfamate compounds were tested at two concentrations (0.1 μM and 1 μM). Libraries 1-EO and 2-EO were synthesized using the p- and m-benzamide spacers as 1st level of molecular diversity and the same wide variety of secondary amines as 2nd level of diversity (Table 2), which were chosen in a somewhat random fashion while including a different pattern, format and heteroatom. […] Compounds 1-EO-07, 1-EO-09 and 1-EO-10 represent a starting point for optimization, as they show more than 36% of inhibition when tested at a concentration of 0.1 μM. These compounds have relatively hydrophobic substituents compared to the rest of the library members. […] The average log P value for the rest of the library, excluding these three compounds, is 1.93.
This enzymatic assay was carried out according to a procedure previously described for the transformation of substrate [^3H]-E1S (100 μM) into [^3H]-E1 by homogenated HEK-293 cells over-expressing the enzyme activity.^56,73

Structure (SMILES)	STS inhibition (%) (STS; 0.1 μM)	STS inhibition (%) (STS; 1 μM)	other results
O=C(c1ccc(CN(Cc2ccc(OCCCN3CCCCC3)cc2)Cc2ccccn2)cc1)N1CCc2ccc(O)cc2C1 [Compound 20, (7-hydroxy-3,4-dihydroisoquinolin-2(1H)-yl)(4-{[{4-[3-(piperidin-1-yl)propoxy]benzyl}(pyridin-2-ylmethyl)amino]methyl}phenyl)methanone]			activity at 0.01 µM (T-47D cells): 105.9 ± 1%; activity at 0.1 µM (T-47D cells): 104 ± 4.8%; activity at 1 µM (T-47D cells): 60.7 ± 6.4%
O=C(c1ccc(CN(CCCn2ccnc2)Cc2ccco2)cc1)N1CCc2ccc(O)cc2C1 [Compound 24, [4-({(furan-2-ylmethyl)[3-(1H-imidazol-1-yl)propyl]amino}methyl)phenyl](7-hydroxy-3,4-dihydroisoquinolin-2(1H)-yl)methanone]			activity at 0.01 µM (T-47D cells): 94.9 ± 1.3%; activity at 0.1 µM (T-47D cells): 98.5 ± 4.5%; activity at 1 µM (T-47D cells): 115 ± 5.9%
O=C(c1ccc(CN(Cc2ccccn2)Cc2ccccc2OCCCN2CCCCC2)cc1)N1CCc2ccc(O)cc2C1 [Compound 19, (7-hydroxy-3,4-dihydroisoquinolin-2(1H)-yl)(4-{[{2-[3-(piperidin-1-yl)propoxy]benzyl}(pyridin-2-ylmethyl)amino]methyl}phenyl)methanone]			activity at 0.01 µM (T-47D cells): 103 ± 6.9%; activity at 0.1 µM (T-47D cells): 99.8 ± 4.2%; activity at 1 µM (T-47D cells): 37.1 ± 4.2%
CN(C)CCN(Cc1ccccc1)Cc1ccc(C(=O)N2CCc3ccc(OS(N)(=O)=O)cc3C2)cc1 [3-EO-04]	13.9 ± 4.8%	57.8 ± 3.4%	
NS(=O)(=O)Oc1ccc2c(c1)CN(C(=O)c1ccc(CN3CCOCC3)cc1)CC2 [1-EO-01]	10.9 ± 3.5%	50.6 ± 1.2%	
CN(CCN1CCCCC1)Cc1ccc(C(=O)N2CCc3ccc(OS(N)(=O)=O)cc3C2)cc1 [3-EO-06]	0.3 ± 1.7%	26.8 ± 13.5%	
CCN(Cc1ccc(C(=O)N2CCc3ccc(OS(N)(=O)=O)cc3C2)cc1)Cc1cccnc1 [3-EO-15]	35.7 ± 4.3%	85.2 ± 1.7%	
CCN(Cc1ccccc1)Cc1ccc(CN2CCc3ccc(OS(N)(=O)=O)cc3C2)cc1 [Compound 11]			inhibition at 0.1 µM (STS; 0.1 μM): 1%; inhibition at 1 µM (STS; 1 μM): 17%
CCCN(Cc1ccccc1)Cc1ccc(C(=O)N2CCc3ccc(OS(N)(=O)=O)cc3C2)cc1 [3-EO-01]	64.8 ± 3.8%	94.3 ± 0.3%	
CN(C)CCN(CCN(C)C)Cc1cccc(C(=O)N2CCc3ccc(OS(N)(=O)=O)cc3C2)c1 [4-EO-08]	0.0 ± 0.0%	17.1 ± 7.6%	
CN(C)CCCN(Cc1ccccc1)Cc1ccc(C(=O)N2CCc3ccc(OS(N)(=O)=O)cc3C2)cc1 [3-EO-05]	16.2 ± 4.6%	61.6 ± 4.9%	
NS(=O)(=O)Oc1ccc2c(c1)CN(C(=O)c1ccc(CN3CCc4ccccc4C3)cc1)CC2 [3-EO-10]	56.0 ± 7.2%	83.0 ± 11.9%	
CCN(Cc1cccnc1)Cc1cccc(C(=O)N2CCc3ccc(OS(N)(=O)=O)cc3C2)c1 [4-EO-15]	14.3 ± 4.7%	33.5 ± 5.8%	
CCN(Cc1ccccc1)Cc1ccc(C(=O)N2CCc3ccc(OS(N)(=O)=O)cc3C2)cc1 [1-EO-09]		83.6 ± 0.2%	STS inhibition (%) (STS; 1 μM, listed as 1-EO-9, 1 µM): 84%
CCN(Cc1ccccc1)Cc1cccc(C(=O)N2CCc3ccc(OS(N)(=O)=O)cc3C2)c1 [2-EO-09]	17% and 17.3 ± 2.5%	69.0 ± 0.0%	
NS(=O)(=O)Oc1ccc2c(c1)CN(C(=O)c1cccc(CN3CCOCC3)c1)CC2 [2-EO-01]	0.0 ± 4.7%	20.9 ± 4.4%	
CCN(Cc1ccc(F)cc1)Cc1cccc(C(=O)N2CCc3ccc(OS(N)(=O)=O)cc3C2)c1 [4-EO-17]	10.9 ± 7.4%	66.5 ± 4.5%	
NS(=O)(=O)Oc1ccc2c(c1)CN(C(=O)c1ccc(CN(Cc3ccccc3)Cc3ccco3)cc1)CC2 [3-EO-11]	91% and 90.8 ± 2.6%	98.2 ± 0.4%	
